Measured values taken from article PMC7707092, “Discovery and characterization of ORM‐11372, a novel inhibitor of the sodium‐calcium exchanger with positive inotropic activity” (British Journal of Pharmacology, 2020).
Values joined by “and” are separate entries in the source; they are usually repeats but may differ in a detail not shown here. Identical values can stand only once. Like-named read-outs stand apart in the source and are kept apart here.

Legend:
[1] = molecular target: T1, rat NCX 1.1 current (I NCX) (Rattus norvegicus, UniProt Q01728); test: NCX current (I NCX), whole‐cell patch‐clamp in rat ventricular cardiomyocytes; type: cell-based
T1 construct: In rat primary ventricular CMs, the magnitude of outward I NCX; endogenous in cells; host or cells: freshly isolated left ventricular cardiomyocytes of male Wistar rats
Protocol: Rats were anaesthetized with sodium thiopental (0.1 g·kg^−1, i.p.) and injected with heparin sodium (500 IU, i.v.). Hearts were rapidly excised, mounted via the aorta on a Langendorff apparatus, and retrogradely perfused at 37°C with the Krebs–Henseleit solution for 5 min, with Krebs‐Henseleit solution (composition (in mM): 118.5 NaCl, 4 KCI, 2 CaCl2, 1 MgSO4, 1.2 NaH2PO4, 25 NaHCO3, and 11.1 glucose), pH 7.4 when saturated with a mixture of 95% O2 and 5% CO2. The perfusion of the heart was continued using Ca^2+‐free Krebs–Henseleit solution for 10 min, and completed by the addition of 0.05% collagenase (type I), 0.05% hyaluronidase, and 200‐μM CaCl2, for a further 10 min. Subsequently, the left ventricular myocardium was minced and gently agitated. Dissociated cells were stored at room temperature in a solution containing (in mM) 89 KOH, 70 glutamate, 15 taurine, 30 KCI, 10 KH2PO4,10 HEPES, 0.5 MgCl2, 11 glucose, and 0.5 EGTA, and the pH was set to 7.3 using KOH. […] One drop of the cell suspension was placed in a recording chamber and mounted on the stage of an inverted microscope (Olympus IX51, Olympus, Japan), and the individual myocytes were allowed to settle and adhere to the bottom of the chamber for at least 5 min before initiating superfusion.
Manual patch‐clamp recordings of membrane currents (I NCX, L‐type Ca^2+ channel current [I CaL], human cardiac sodium 1.5 current [I Na], and I hERG) were undertaken using either an Axopatch 200B or Axopatch ID amplifier (Molecular Devices, USA), using the whole‐cell configuration. Cells were at least initially (except when recording I Na) perfused with an extracellular solution consisting of (in mM) 143 NaCl, 4 KCl, 1.8 CaCl2, 1.2 MgCl2, 5 glucose, and 10 HEPES (pH 7.4 with NaOH; osmolarity adjusted to 301 ± 3 mOsm). A slightly modified version was used for the rat ventricular CMs (in mM: 144 NaCl, 0.4 NaH2PO4, 4.0 KCl, 1.8 CaCl2, 0.53 MgSO4, 5.5 glucose, and 5.0 HEPES). Patch pipettes were pulled with a P‐2000 or P‐97 micropipette puller (Sutter Instruments, USA) from borosilicate glass capillaries and had resistances of between 2 and 4 MΩ when filled with any of the pipette solutions (see below). The data were filtered at 1 or 2 kHz and digitized at 10 kHz with acquisition and analysis performed by use of pClamp software (Versions 8–10; Molecular Devices; RRID:SCR_011323).
After the establishment of the whole‐cell configuration with hiPSC‐derived CMs or rat ventricular myocytes, the extracellular solution was switched to a K^+‐free bath solution as described earlier (Hobai, Khananshvili, & Levi, 1997; Jost et al., 2013). The solution was composed of (in mM) 135 NaCl, 10 CsCl, 1 CaCl2, 1 MgCl2, 0.2 BaCl2, 0.33 NaH2PO4, 10 TEACI, 10 HEPES, and 10 glucose supplemented with 20‐μM ouabain, 50‐μM lidocaine, and 1‐μM nisoldipine or 2‐μM nitrendipine at pH 7.0 (osmolarity adjusted to 301 ± 3 mOsm). The pipette solution contained (in mM) 140 CsOH, 75 aspartic acid, 20 TEACI, 5 MgATP, 10 HEPES, 20 NaCl, 20 EGTA, and 10 CaCl2 (pH adjusted to 7.2 with CsOH; osmolarity adjusted to 290 ± 2 mOsm). The free intracellular Ca^2+ level in the patch pipette was 140 nM according to Maxchelator (RRID:SCR_000459) software (Bers, Patton, & Nuccitelli, 2010).
The measurement of current in the K^+‐free bath solution using a ramp voltage protocol at 20‐s intervals represented the first control, after which values were measured in the presence of one or more increasing concentrations of ORM‐11372 and finally upon exposure to 10‐mM NiCl2. The voltage protocol consisted of voltage ramps (at a rate of 100 mV·s^−1) with a holding potential of […], which changed to −100 mV and then returned to −40 mV. I NCX was defined as the Ni^2+‐sensitive current value. However, for rat ventricular myocytes, the magnitude of the inward current (forward mode) was particularly small and variable. […]

h5‐HT2A receptors = molecular target: T2, h5‐HT2A receptors (Homo sapiens, UniProt P28223); test: h5‐HT2A agonism and antagonism, intracellular calcium in recombinant HEK 293 cells; type: cell-based; conditions: maximum concentration 10 μM
T2 construct: host or cells: recombinant HEK 293
T2 sequence (P28223 whole entry): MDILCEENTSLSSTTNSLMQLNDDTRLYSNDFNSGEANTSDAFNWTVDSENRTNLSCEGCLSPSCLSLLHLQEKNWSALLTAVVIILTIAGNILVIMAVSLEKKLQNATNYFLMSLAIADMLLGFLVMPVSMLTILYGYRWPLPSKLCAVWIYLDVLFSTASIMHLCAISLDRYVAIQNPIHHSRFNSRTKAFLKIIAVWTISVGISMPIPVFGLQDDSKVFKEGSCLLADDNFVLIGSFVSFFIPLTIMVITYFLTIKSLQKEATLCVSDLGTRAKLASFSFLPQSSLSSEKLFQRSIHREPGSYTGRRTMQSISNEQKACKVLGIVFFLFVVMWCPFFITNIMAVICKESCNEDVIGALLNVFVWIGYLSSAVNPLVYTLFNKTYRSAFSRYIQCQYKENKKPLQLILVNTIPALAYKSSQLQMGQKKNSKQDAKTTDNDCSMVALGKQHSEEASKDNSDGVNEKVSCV
Protocol: Radioligand binding assays were performed at Eurofins Cerep SA (Celle L'Evescault, France), for testing the inhibition capacity of ORM‐11372 (at 10 μM with two replicates), in over 75 targets. These included receptors (e.g., human A1, A2A, and A3 adenosine receptors; α1 and α2 adrenoceptors; human β1–β3 adrenergic receptors; human D1, D2S, D3, D4.4, and D5 dopamine receptors; EGF and VEGF receptors; human M1–M5 muscarinic ACh receptors; human 5‐HT1A, 5‐HT2A, 5‐HT2B, 5‐HT2C, 5‐HT4e, 5‐HT5A, 5‐HT6, and 5‐HT7 receptors), ion channels (5‐HT3, Ca^2+, ATP‐dependent potassium channel [KATP], voltage‐dependent potassium channel [KV], small‐conductance calcium‐dependent potassium channel [SKCa], Na^+, and Cl^−), and transporters (adenosine, noradrenaline, dopamine, and 5‐HT). Follow‐up functional studies (with five concentrations and two replicates) were performed for 5‐HT2A receptors and noradrenaline transporter. Agonism and antagonism at h5‐HT2A receptors was explored in recombinant HEK 293 cells and intracellular calcium changes were detected using fluorimetry. Noradrenaline uptake was measured by carrying out scintillation counting of [^3H]noradrenaline incorporated into rat hypothalamus synaptosomes.

Question: With `Nc1cccc(-c2ccc(CNc3ccc(F)cc3)o2)c1` [ORM‐11372] as the compound, how does the inhibition at 0.004 µM ([1]; 4 nM, read-out: in vitro NCX 1.1 current inhibition) read?
Answer: The inhibition at 0.004 µM was 34%.

Question: What about the inhibition at 0.036 µM ([1]; 36 nM, read-out: in vitro NCX 1.1 current inhibition) of the same compound?
Answer: Its inhibition at 0.036 µM is 67%.

Question: What about the inhibition at 0.092 µM ([1]; 92 nM, read-out: in vitro NCX 1.1 current inhibition) of the same compound?
Answer: The inhibition at 0.092 µM was 79%.

Question: What about the inhibition at 0.351 µM ([1]; 351 nM, read-out: in vitro NCX inhibition) of the same compound?
Answer: The inhibition at 0.351 µM was 90%.

Question: What about the IC50 ([1]; rat CMs, summarised (discussion), read-out: IC50 rat NCX 1.1 currents) of the same compound?
Answer: The IC50 was 0.01 µM.

Question: What about the IC50 ([1]; rat primary ventricular CMs, read-out: IC50 outward I NCX (reverse mode)) of the same compound?
Answer: The IC50 was 0.0113 µM and 0.011 µM.

Question: And the inhibition at 0.01 µM ([1]; rat ventricular CMs, 10 nM, altered conditions to enhance inward current, n=3, read-out: inhibition of inward I NCX (forward mode))?
Answer: The inhibition at 0.01 µM was 53.8 ± 3.9%.

Question: And the “agonism / antagonism at 5‐HT2A receptors” value (h5‐HT2A receptors)?
Answer: Its value is “Neither agonism nor antagonism”.
